Measured values from ChEMBL document CHEMBL1201861, “Genomics of Drug Sensitity in Cancer screening data, Wellcome Trust Sanger Institute”.

How the values were obtained:
Assay in all cases: cells
Conditions in all cases: Homo sapiens
DU-145 = assay type: functional, cell-based
Description: SANGER: Inhibition of human DU-145 cell growth in a cell viability assay.

NCI-H2228 = assay type: functional, cell-based
Description: SANGER: Inhibition of human NCI-H2228 cell growth in a cell viability assay.

IGR-1 = assay type: functional, cell-based
Description: SANGER: Inhibition of human IGR-1 cell growth in a cell viability assay.

HOP-92 = assay type: functional, cell-based
Description: SANGER: Inhibition of human HOP-92 cell growth in a cell viability assay.

NCI-H1755 = assay type: functional, cell-based
Description: SANGER: Inhibition of human NCI-H1755 cell growth in a cell viability assay.

NCI-H1437 = assay type: functional, cell-based
Description: SANGER: Inhibition of human NCI-H1437 cell growth in a cell viability assay.

UACC-893 = assay type: functional, cell-based
Description: SANGER: Inhibition of human UACC-893 cell growth in a cell viability assay.

RVH-421 = assay type: functional, cell-based
Description: SANGER: Inhibition of human RVH-421 cell growth in a cell viability assay.

NCI-H661 = assay type: functional, cell-based
Description: SANGER: Inhibition of human NCI-H661 cell growth in a cell viability assay.

BHY = assay type: functional, cell-based
Description: SANGER: Inhibition of human BHY cell growth in a cell viability assay.

647-V = assay type: functional, cell-based
Description: SANGER: Inhibition of human 647-V cell growth in a cell viability assay.

MeWo = assay type: functional, cell-based
Description: SANGER: Inhibition of human Mewo cell growth in a cell viability assay.

NCI-H2405 = assay type: functional, cell-based
Description: SANGER: Inhibition of human NCI-H2405 cell growth in a cell viability assay.

NCI-H650 = assay type: functional, cell-based
Description: SANGER: Inhibition of human NCI-H650 cell growth in a cell viability assay.

SK-LU-1 = assay type: functional, cell-based
Description: SANGER: Inhibition of human SK-LU-1 cell growth in a cell viability assay.

SW1417 = assay type: functional, cell-based
Description: SANGER: Inhibition of human SW1417 cell growth in a cell viability assay.

ACHN = assay type: functional, cell-based
Description: SANGER: Inhibition of human ACHN cell growth in a cell viability assay.

GCT = assay type: functional, cell-based
Description: SANGER: Inhibition of human GCT cell growth in a cell viability assay.

HuCCT-1 = assay type: functional, cell-based, HuCCT1
Description: SANGER: Inhibition of human HuCCT1 cell growth in a cell viability assay.

GP5d = assay type: functional, cell-based
Description: SANGER: Inhibition of human GP5d cell growth in a cell viability assay.

OAW-28 = assay type: functional, cell-based
Description: SANGER: Inhibition of human OAW-28 cell growth in a cell viability assay.

HT55 = assay type: functional, cell-based
Description: SANGER: Inhibition of human HT55 cell growth in a cell viability assay.

NCI-H596 = assay type: functional, cell-based
Description: SANGER: Inhibition of human NCI-H596 cell growth in a cell viability assay.

BPH-1 = assay type: functional, cell-based
Description: SANGER: Inhibition of human BPH-1 cell growth in a cell viability assay.

A204 = assay type: functional, cell-based
Description: SANGER: Inhibition of human A204 cell growth in a cell viability assay.

SF-295 = assay type: functional, cell-based
Description: SANGER: Inhibition of human SF295 cell growth in a cell viability assay.

SAOS-2 = assay type: functional, cell-based
Description: SANGER: Inhibition of human Saos-2 cell growth in a cell viability assay.

SW1990 = assay type: functional, cell-based
Description: SANGER: Inhibition of human SW1990 cell growth in a cell viability assay.

SK-MEL-28 = assay type: functional, cell-based
Description: SANGER: Inhibition of human SK-MEL-28 cell growth in a cell viability assay.

8305C = assay type: functional, cell-based
Description: SANGER: Inhibition of human 8305C cell growth in a cell viability assay.

MKN-1 = assay type: functional, cell-based
Description: SANGER: Inhibition of human MKN1 cell growth in a cell viability assay.

NCI-H1573 = assay type: functional, cell-based
Description: SANGER: Inhibition of human NCI-H1573 cell growth in a cell viability assay.

HCT-116 = assay type: functional, cell-based
Description: SANGER: Inhibition of human HCT-116 cell growth in a cell viability assay.

COLO-741 = assay type: functional, cell-based
Description: SANGER: Inhibition of human COLO-741 cell growth in a cell viability assay.

MFE-280 = assay type: functional, cell-based
Description: SANGER: Inhibition of human MFE-280 cell growth in a cell viability assay.

SW1573 = assay type: functional, cell-based
Description: SANGER: Inhibition of human SW1573 cell growth in a cell viability assay.

MKN-7 = assay type: functional, cell-based
Description: SANGER: Inhibition of human MKN7 cell growth in a cell viability assay.

D-247MG = assay type: functional, cell-based
Description: SANGER: Inhibition of human D-247MG cell growth in a cell viability assay.

VM-CUB-1 = assay type: functional, cell-based
Description: SANGER: Inhibition of human VM-CUB-1 cell growth in a cell viability assay.

MCF7 = assay type: functional, cell-based
Description: SANGER: Inhibition of human MCF7 cell growth in a cell viability assay.

HCC38 = assay type: functional, cell-based
Description: SANGER: Inhibition of human HCC38 cell growth in a cell viability assay.

HT-1080 = assay type: functional, cell-based
Description: SANGER: Inhibition of human HT-1080 cell growth in a cell viability assay.

HCC1937 = assay type: functional, cell-based
Description: SANGER: Inhibition of human HCC1937 cell growth in a cell viability assay.

NCI-H460 = assay type: functional, cell-based
Description: SANGER: Inhibition of human NCI-H460 cell growth in a cell viability assay.

CP50-MEL-B = assay type: functional, cell-based
Description: SANGER: Inhibition of human CP50-MEL-B cell growth in a cell viability assay.

DoTc2-4510 = assay type: functional, cell-based
KYSE-510 = assay type: functional, cell-based
Description: SANGER: Inhibition of human KYSE-510 cell growth in a cell viability assay.

ESS-1 = assay type: functional, cell-based
Description: SANGER: Inhibition of human ESS-1 cell growth in a cell viability assay.

T-24 = assay type: functional, cell-based
Description: SANGER: Inhibition of human T-24 cell growth in a cell viability assay.

HOS = assay type: functional, cell-based
Description: SANGER: Inhibition of human HOS cell growth in a cell viability assay.

COLO-678 = assay type: functional, cell-based
Description: SANGER: Inhibition of human COLO-678 cell growth in a cell viability assay.

NCI-H28 = assay type: functional, cell-based
Description: SANGER: Inhibition of human NCI-H28 cell growth in a cell viability assay.

HuP-T3 = assay type: functional, cell-based
Description: SANGER: Inhibition of human HuP-T3 cell growth in a cell viability assay.

UACC-62 = assay type: functional, cell-based
Description: SANGER: Inhibition of human UACC-62 cell growth in a cell viability assay.

## COc1cc(Nc2c(C#N)cnc3cc(OCCCN4CCN(C)CC4)c(OC)cc23)c(Cl)cc1Cl [BOSUTINIB]
DU-145
  IC50: > 2000 nM
NCI-H2228
  IC50: > 2000 nM
IGR-1
  IC50: > 2000 nM
HOP-92
  IC50: > 2000 nM
NCI-H1755
  IC50: > 2000 nM
NCI-H1437
  IC50: > 2000 nM
UACC-893
  IC50: > 2000 nM
RVH-421
  IC50: > 2000 nM
NCI-H661
  IC50: > 2000 nM
BHY
  IC50: 1230 nM
647-V
  IC50: > 2000 nM
MeWo
  IC50: > 2000 nM
NCI-H2405
  IC50: > 2000 nM
NCI-H650
  IC50: > 2000 nM
SK-LU-1
  IC50: > 2000 nM
SW1417
  IC50: > 2000 nM
ACHN
  IC50: 541 nM
GCT
  IC50: > 2000 nM
HuCCT-1
  IC50: > 2000 nM
GP5d
  IC50: > 2000 nM
OAW-28
  IC50: > 2000 nM
HT55
  IC50: > 2000 nM
NCI-H596
  IC50: > 2000 nM
BPH-1
  IC50: 1450 nM
A204
  IC50: > 2000 nM
SF-295
  IC50: > 2000 nM
SAOS-2
  IC50: > 2000 nM
SW1990
  IC50: > 2000 nM
SK-MEL-28
  IC50: > 2000 nM
8305C
  IC50: > 2000 nM
MKN-1
  IC50: > 2000 nM
NCI-H1573
  IC50: > 2000 nM
HCT-116
  IC50: > 2000 nM
COLO-741
  IC50: > 2000 nM
MFE-280
  IC50: > 2000 nM
SW1573
  IC50: > 2000 nM
MKN-7
  IC50: > 2000 nM
D-247MG
  IC50: > 2000 nM
VM-CUB-1
  IC50: > 2000 nM
MCF7
  IC50: > 2000 nM
HCC38
  IC50: > 2000 nM
HT-1080
  IC50: 553 nM
HCC1937
  IC50: > 2000 nM
NCI-H460
  IC50: > 2000 nM
CP50-MEL-B
  IC50: > 2000 nM
DoTc2-4510
  IC50: > 2000 nM
KYSE-510
  IC50: > 2000 nM
ESS-1
  IC50: > 2000 nM
T-24
  IC50: > 2000 nM
HOS
  IC50: > 2000 nM
COLO-678
  IC50: > 2000 nM
NCI-H28
  IC50: > 2000 nM
HuP-T3
  IC50: > 2000 nM
UACC-62
  IC50: > 2000 nM

## Cn1c(=O)n(-c2ccc(C(C)(C)C#N)cc2)c2c3cc(-c4cnc5ccccc5c4)ccc3ncc21 [DACTOLISIB]
DU-145
  IC50: > 2000 nM
NCI-H2228
  IC50: 88.3 nM
IGR-1
  IC50: 46.1 nM
HOP-92
  IC50: 26.5 nM
NCI-H1755
  IC50: 139 nM
NCI-H1437
  IC50: 80.5 nM
UACC-893
  IC50: 406 nM
RVH-421
  IC50: 53.7 nM
NCI-H661
  IC50: 151 nM
BHY
  IC50: 42.7 nM
647-V
  IC50: 78.1 nM
MeWo
  IC50: 12 nM
NCI-H2405
  IC50: 54.9 nM
NCI-H650
  IC50: 94.1 nM
SK-LU-1
  IC50: 26.2 nM
SW1417
  IC50: > 2000 nM
ACHN
  IC50: 357 nM
GCT
  IC50: 13.7 nM
HuCCT-1
  IC50: 90.8 nM
GP5d
  IC50: 434 nM
OAW-28
  IC50: > 2000 nM
HT55
  IC50: 1310 nM
NCI-H596
  IC50: 228 nM
BPH-1
  IC50: 4.76 nM
A204
  IC50: 28.5 nM
SF-295
  IC50: 18.9 nM
SAOS-2
  IC50: 179 nM
SW1990
  IC50: 109 nM
SK-MEL-28
  IC50: 112 nM
8305C
  IC50: 41.9 nM
MKN-1
  IC50: 2.8 nM
NCI-H1573
  IC50: 87.5 nM
HCT-116
  IC50: 131 nM
COLO-741
  IC50: 1500 nM
MFE-280
  IC50: 9.99 nM
SW1573
  IC50: 109 nM
MKN-7
  IC50: 124 nM
D-247MG
  IC50: 135 nM
VM-CUB-1
  IC50: 33.4 nM
MCF7
  IC50: 48.6 nM
HCC38
  IC50: 266 nM
HT-1080
  IC50: 21.9 nM
HCC1937
  IC50: 187 nM
NCI-H460
  IC50: 81.2 nM
CP50-MEL-B
  IC50: 77.4 nM
DoTc2-4510
  IC50: 1070 nM
KYSE-510
  IC50: 65.8 nM
ESS-1
  IC50: 135 nM
T-24
  IC50: 43.8 nM
HOS
  IC50: 21.1 nM
COLO-678
  IC50: > 2000 nM
NCI-H28
  IC50: 34.4 nM
HuP-T3
  IC50: 1120 nM
UACC-62
  IC50: 168 nM
